Bridge positions count the residues as written; N and C are the ends. Peptide text beside a SMILES is read from it.
Columns and labels:
[1] = target: T1, Escherichia coli σ^70 RNAP holoenzyme (Escherichia coli, UniProt P0A8T7); experiment: fluorescence-detected abortive initiation assay; type: biochemical; settings: lacUV5-12 DNA fragment, 37° C.
T1 construct: purchased Epicentre, Inc
Method: (§1) Following incubation of reaction mixtures for 5 min at 22° C., 1 μl 1.1 μM DNA fragment lacUV5-12 (Mukhopadhyay et al. (2001) Cell 106, 453-463) was added. Following further incubation of reaction mixtures for […] at 37° C., 0.5 μl 1 mg/ml heparin (Sigma, Inc.; omitted in experiments with T. thermophilus RNAP) and 0.5 μl of 2.75 mM (γ-AmNS)UTP (Molecular Probes, Inc.) were added, and reaction mixtures were transferred to sub-micro fluorometer cuvettes (Starna Cells, Inc.). Following further incubation of reaction mixtures for 2 min at 37° C., RNA synthesis was initiated by addition of 2 μl 11 mM ApA (Sigma, Inc.), and fluorescence emission intensity was monitored for 5 min at 37° C. [excitation wavelength=360 nm and emission wavelength=500 nm; excitation and emission slit widths=4 nm; QuantaMaster QM1 spectrofluorometer (PTI, Inc.)]. The quantity of UMP incorporated into RNA was determined from the quantity of (γ-AmNS) UTP consumed, which, in turn, was calculated as follows (Schlageck et al. 1979): (γ-AmNS)UTPconsumed=[(γ-AmNS)UTP0](Ft−F0)/(12.4×F0) where (γ-AmNS)UTP0 is the quantity of (γ-AmNS)UTP at time 0, F0 is the fluorescence emission intensity at time 0, and Ft is the fluorescence emission intensity at time t.

[2] = target: T2, Thermus thermophilus σ^A RNAP holoenzyme (Thermus thermophilus, UniProt Q8RQE8); experiment: fluorescence-detected abortive initiation assay; type: biochemical; settings: lacUV5-12 DNA fragment, 37° C.
T2 construct: made in house
Method: as §1

[3] = test system: Thermus-Deinoccoccus bacterial RNAP; settings: Yuzenkova, et al. (2002); cited from earlier work
[4] = tested thermal and chemical denaturants; cited from earlier work
[5] = test system: Gram-positive bacterial RNAP; settings: Yuzenkova, et al. (2002); cited from earlier work
[6] = test system: mesophilic endo- and exopeptidease; settings: tested mesophilic endo- and exopeptidases; cited from earlier work

## C[C@@H](O)[C@@H]1NC(=O)CNC(=O)[C@H](Cc2c[nH]cn2)NC(=O)[C@H](Cc2c[nH]c3ccccc23)NC(=O)[C@H](CC(N)=O)NC(=O)CNC(=O)C[C@@H](C(=O)N[C@@H](Cc2c[nH]c3ccccc23)C(=O)N[C@@H](Cc2ccccc2)C(=O)N[C@@H](Cc2ccccc2)C(=O)N[C@@H](CC(N)=O)C(=O)N[C@@H](Cc2ccc(O)cc2)C(=O)N[C@@H](Cc2ccc(O)cc2)C(=O)N[C@@H](Cc2c[nH]c3ccccc23)C(=O)O)NC(=O)[C@@H]2CCCN2C(=O)[C@H](CO)NC1=O [RES-701-3] (GNWHGTSPDWFFNYYW-OH; lactam N-9; C-terminus assumed)
[1]
  IC50: 20 µM
[2]
  IC50: 2 µM

## CC[C@H](C)[C@H](NC(=O)[C@H](Cc1ccccc1)NC(=O)[C@@H](NC(=O)[C@H](Cc1cnc[nH]1)NC(=O)CNC(=O)CNC(=O)[C@H](Cc1ccccc1)NC(=O)[C@H](CC(C)C)NC(=O)[C@@H]1CC(=O)NCC(=O)N[C@@H](Cc2ccc(O)cc2)C(=O)N2CCC[C@H]2C(=O)N[C@@H](Cc2c[nH]c3ccccc23)C(=O)N[C@@H](Cc2c[nH]c3ccccc23)C(=O)N[C@@H](CC(=O)O)C(=O)N[C@@H](Cc2ccc(O)cc2)C(=O)N[C@@H](CCCNC(=N)N)C(=O)N1)[C@@H](C)O)C(=O)N[C@@H](CO)C(=O)N1CCC[C@H]1C(=O)O [propeptin] (GYPWWDYRDLFGGHTFISP-OH; lactam N-9)
[1]
  IC50: 30 µM
[2]
  IC50: 5 µM

## Gly1-Gly2-Ala3-Gly4-His5-Pro6-Val7-Glu8-Tyr9-Phe10-Val11-Gly12-Ile13-Gly14-Thr15-Pro16-Ile17-Ser18-Phe19-Tyr20-Gly21 cyclic(8→1) peptide [MccJ25]
[3]
  inhibition of Thermus-Deinoccoccus bacterial RNAP: does not inhibit
[4]
  resistance to denaturation: complete resistance to tested thermal and chemical denaturants
[5]
  inhibition of Gram-positive bacterial RNAP: does not inhibit
[6]
  resistance to proteolysis: complete resistance to tested mesophilic endo- and exopeptidease

Source: US8354246B2, “Non-MCCJ25-related lariat-peptide inhibitors of bacterial RNA polymerase” (priority 2006, dated 2013)
